Experimental data taken from PMC3445516 (PLoS ONE, 2012).
Where two headings read alike, the source gives them in different places.

Assays:
Assay in all cases: Ambit kinase profiling, competition binding
EPHA1 = target: T1, EPHA1 (Homo sapiens, UniProt P21709)
T1 construct: purchased Ambit Biosciences (KINOMEscan)
T1 sequence (P21709 26-976): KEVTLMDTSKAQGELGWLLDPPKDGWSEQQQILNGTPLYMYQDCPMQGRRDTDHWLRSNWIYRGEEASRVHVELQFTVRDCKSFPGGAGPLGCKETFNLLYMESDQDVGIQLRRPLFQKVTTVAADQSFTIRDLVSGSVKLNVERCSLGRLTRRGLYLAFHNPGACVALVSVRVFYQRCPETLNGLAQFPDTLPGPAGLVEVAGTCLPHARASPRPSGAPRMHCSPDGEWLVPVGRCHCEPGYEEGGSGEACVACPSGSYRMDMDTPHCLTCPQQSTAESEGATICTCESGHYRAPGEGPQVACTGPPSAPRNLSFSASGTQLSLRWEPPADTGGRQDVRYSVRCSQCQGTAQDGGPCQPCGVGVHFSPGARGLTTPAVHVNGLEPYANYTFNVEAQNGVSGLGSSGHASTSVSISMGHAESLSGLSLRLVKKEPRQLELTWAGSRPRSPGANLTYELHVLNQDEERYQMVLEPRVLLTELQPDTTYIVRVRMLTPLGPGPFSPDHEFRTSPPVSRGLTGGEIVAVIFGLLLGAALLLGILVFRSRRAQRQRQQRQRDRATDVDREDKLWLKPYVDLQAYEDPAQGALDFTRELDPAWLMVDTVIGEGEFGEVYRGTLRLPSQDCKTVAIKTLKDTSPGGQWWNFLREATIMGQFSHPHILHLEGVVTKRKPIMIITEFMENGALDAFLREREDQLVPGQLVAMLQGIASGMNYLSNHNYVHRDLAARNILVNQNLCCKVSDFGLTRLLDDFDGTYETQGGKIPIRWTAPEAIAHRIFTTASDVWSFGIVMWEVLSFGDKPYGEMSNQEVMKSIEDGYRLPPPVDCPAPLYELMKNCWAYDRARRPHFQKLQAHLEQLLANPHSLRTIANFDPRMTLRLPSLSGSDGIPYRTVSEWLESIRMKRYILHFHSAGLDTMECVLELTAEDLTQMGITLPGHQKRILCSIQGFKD
Protocol: (§1) Also included in the kinase profile are four isoforms of PKC (δ, ε, η, θ) and eight isoforms of CAMKs (CAMKIα, δ, γ; CAMKIIα, β, δ, γ; CAMK4).
(§2) The global kinase profiling experiment was performed by Ambit Biosciences.

PKC ε = target: T2, PKC ε (Homo sapiens, UniProt Q02156); conditions: for competition: PKC ε, 10 µM
T2 construct: purchased Ambit Biosciences (KINOMEscan)
T2 sequence (Q02156 1-737): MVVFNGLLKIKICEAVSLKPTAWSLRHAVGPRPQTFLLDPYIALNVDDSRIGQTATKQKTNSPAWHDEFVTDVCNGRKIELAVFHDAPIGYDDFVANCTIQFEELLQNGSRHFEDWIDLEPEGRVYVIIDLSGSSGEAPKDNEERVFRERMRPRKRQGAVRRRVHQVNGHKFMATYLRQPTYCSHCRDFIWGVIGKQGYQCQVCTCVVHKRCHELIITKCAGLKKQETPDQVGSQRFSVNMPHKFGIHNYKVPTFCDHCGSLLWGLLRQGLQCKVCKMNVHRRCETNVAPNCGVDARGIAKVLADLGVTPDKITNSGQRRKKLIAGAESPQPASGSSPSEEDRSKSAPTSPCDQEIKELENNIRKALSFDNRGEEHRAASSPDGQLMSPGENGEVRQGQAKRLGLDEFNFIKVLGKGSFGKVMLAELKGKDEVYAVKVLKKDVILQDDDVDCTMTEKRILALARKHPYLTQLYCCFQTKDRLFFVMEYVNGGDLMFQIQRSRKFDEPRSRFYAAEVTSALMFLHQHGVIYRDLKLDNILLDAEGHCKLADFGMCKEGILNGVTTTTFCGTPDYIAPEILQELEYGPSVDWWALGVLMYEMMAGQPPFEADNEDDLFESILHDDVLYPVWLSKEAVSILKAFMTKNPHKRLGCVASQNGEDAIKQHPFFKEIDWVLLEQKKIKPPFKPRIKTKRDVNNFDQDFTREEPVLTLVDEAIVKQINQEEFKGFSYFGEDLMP
Protocol: as §1, §2

CDK2 = target: T3, CDK2 (Homo sapiens, UniProt P24941); conditions: for % Competition: 10 µM
T3 construct: purchased Ambit Biosciences (KINOMEscan)
Protocol: as §1, §2

p38-beta = target: T4, p38-beta (Homo sapiens, UniProt Q15759)
T4 construct: purchased Ambit Biosciences (KINOMEscan)
Protocol: as §1, §2

ACVR1 = target: T5, ACVR1 (Homo sapiens, UniProt Q04771)
T5 construct: purchased Ambit Biosciences (KINOMEscan)
T5 sequence (Q04771 21-509): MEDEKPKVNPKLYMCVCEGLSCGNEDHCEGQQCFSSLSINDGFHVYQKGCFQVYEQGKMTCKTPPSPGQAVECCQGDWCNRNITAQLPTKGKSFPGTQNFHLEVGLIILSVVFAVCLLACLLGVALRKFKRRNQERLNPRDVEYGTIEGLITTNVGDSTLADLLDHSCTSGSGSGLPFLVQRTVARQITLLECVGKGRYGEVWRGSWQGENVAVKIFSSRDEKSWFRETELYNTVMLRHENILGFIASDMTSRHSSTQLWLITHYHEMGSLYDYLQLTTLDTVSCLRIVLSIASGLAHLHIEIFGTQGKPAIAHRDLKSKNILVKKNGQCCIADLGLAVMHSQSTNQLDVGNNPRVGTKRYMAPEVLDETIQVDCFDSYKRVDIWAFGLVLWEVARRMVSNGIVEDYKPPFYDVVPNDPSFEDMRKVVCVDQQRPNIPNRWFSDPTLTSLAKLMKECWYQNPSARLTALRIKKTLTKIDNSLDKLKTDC
Protocol: as §1, §2

T4 sequence (Q15759 whole entry): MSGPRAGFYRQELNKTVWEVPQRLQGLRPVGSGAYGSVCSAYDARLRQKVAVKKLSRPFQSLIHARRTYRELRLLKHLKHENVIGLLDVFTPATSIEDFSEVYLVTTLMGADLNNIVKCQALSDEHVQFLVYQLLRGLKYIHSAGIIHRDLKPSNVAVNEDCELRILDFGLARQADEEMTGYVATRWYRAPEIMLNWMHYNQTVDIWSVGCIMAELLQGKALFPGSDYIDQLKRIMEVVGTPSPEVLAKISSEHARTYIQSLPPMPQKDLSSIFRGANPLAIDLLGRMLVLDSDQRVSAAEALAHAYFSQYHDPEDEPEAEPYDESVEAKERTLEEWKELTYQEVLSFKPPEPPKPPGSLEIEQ

Compound	inhibition at 10 µM (EPHA1; EPHA1, 10 µM, read-out: % Competition) [%]	competition (PKC ε) [%]	% Competition (CDK2) [%]	inhibition at 10 µM (p38-beta; 10 µM, read-out: % Competition) [%]	inhibition at 10 µM (ACVR1; ACVR1, 10 µM, read-out: % Competition) [%]	inhibition at 10 µM (EPHA1; read-out: % Competition) [%]	% Competition (p38-beta; 10 µM) [%]	inhibition at 10 µM (ACVR1; read-out: % Competition) [%]	inhibition at 10 µM (EPHA1; EPHA1, compound concentration 10 uM, read-out: Percent Competition) [%]	inhibition at 10 µM (PKC ε; PRKCE, compound concentration 10 uM, read-out: Percent Competition) [%]	Percent Competition (CDK2; compound concentration 10 uM) [%]	inhibition at 10 µM (p38-beta; compound concentration 10 uM, read-out: Percent Competition) [%]	inhibition at 10 µM (ACVR1; ACVR1, compound concentration 10 uM, read-out: Percent Competition) [%]
Fc1ccc(-c2c(-c3ccncc3)[nH]c3nccnc23)cc1 [Compound 122]	81	< 50	93	100	92	–	–	–	–	–	–	–	–
CC(O)CNc1cc(-c2[nH]c3cccnc3c2-c2ccc(F)cc2)ccn1 (stereo not drawn) [Compound 140]	–	< 50	<50	–	–	< 50	100	< 50	–	–	–	–	–
Fc1ccc(-c2c(-c3ccncc3)[nH]c3nccnc23)cc1 [RO1155697-000-005]	–	–	–	–	–	–	–	–	81	< 50	93	100	92
